Measured values reported in US9006269B2, “Azetidine derivatives” (Vernalis (R&D) Ltd., priority 2008, dated 2015).
Each block holds one compound with its values, some of them ahead of it.

How the values were obtained:
[1] = target: rat FAAH protein (30-579) (Rattus norvegicus (Rat), UniProt P97612); test: Rat FAAH inhibition assay (AAMCA fluorescence); format: biochemical; conditions: 3-hour pre-incubation with compound, 120 nM FAAH; read-out: FAAH Rat IC50 (nM) 180 minutes
Text: Rat FAAH Inhibition Assay
Active rat FAAH protein (30-579) was isolated as described in the literature. The coding sequence of amino acids 30-579 of rat FAAH were cloned into the expression vector pET28a to provide an N-terminal His-tag. Following expression, the His-tagged FAAH′ (30-579) was isolated using a method based on Patricelli et al., 1998; Biochemistry vol 37, p 15177 with a combination of chelating sepharose, heparin sepharose and size exclusion chromatography.
FAAH activity was determined by measuring the liberation of the highly fluorescent 7-amino, 4-methyl Coumarin (AMC) generated during hydrolysis of the substrate Arachidonoyl 7-Amino, 4-methyl Coumarin Amide (AAMCA) by FAAH. Inhibition of FAAH activity was determined as a percentage reduction of the fluorescence determined in the absence of compound.
The assay was carried out in black-walled, clear bottom, 384-well plates. 27.5 μl of FAAH protein (in FAAH assay buffer: 50 mM Hepes, 0.01% Triton X-100, 1 mM EDTA, 0.5 mg/ml BSA (fatty-acid-free), pH 8.2) was pre-incubated, at 120 nM, with increasing concentrations of compounds (2.5 μl in 100% DMSO) for 0, 1 or 3 hours at room temperature. 2.5 μl of DMSO was added for ‘total’ controls (100% FAAH activity) and 2.5 μl of URB-597, a known inhibitor of FAAH activity, (at a final, saturating, concentration of 10 μM) was used for ‘non-specific’ controls (0% FAAH activity). 20 μl of 7.5 μM AAMCA substrate (in FAAH assay buffer) was then added to all wells and incubated at room temperature for a further 1.5 hours. Fluorescence was determined at an excitation wavelength of 355 nm and an emission wavelength of 460 nm using a Flexstation plate reader (Molecular Devices, UK). Inhibition of FAAH activity, by the compounds, was determined as the percentage reduction in relative fluorescence units (RFU) compared to the ‘total’ controls (in the absence of compound) minus the ‘non-specific’ controls. IC50 values were determined, from 10-point dose response curves, in XL-Fit using a 4-Parameter Logistic Model (Sigmoidal Dose-Response Model).
The following Table 1 provides the 3-hour incubation results of testing the compounds of Examples 1-4 herein in the above rat FAAH inhibition assay.

[2] = Plasma concentrations after oral administration in laboratory rats; format: in vivo, rat
FAAH = FAAH (Homo sapiens (Human), UniProt O00519); test: Intrinsic FAAH inhibitory potency (summary statement); format: biochemical; conditions: qualitative statement
Sequence of FAAH (O00519 whole entry): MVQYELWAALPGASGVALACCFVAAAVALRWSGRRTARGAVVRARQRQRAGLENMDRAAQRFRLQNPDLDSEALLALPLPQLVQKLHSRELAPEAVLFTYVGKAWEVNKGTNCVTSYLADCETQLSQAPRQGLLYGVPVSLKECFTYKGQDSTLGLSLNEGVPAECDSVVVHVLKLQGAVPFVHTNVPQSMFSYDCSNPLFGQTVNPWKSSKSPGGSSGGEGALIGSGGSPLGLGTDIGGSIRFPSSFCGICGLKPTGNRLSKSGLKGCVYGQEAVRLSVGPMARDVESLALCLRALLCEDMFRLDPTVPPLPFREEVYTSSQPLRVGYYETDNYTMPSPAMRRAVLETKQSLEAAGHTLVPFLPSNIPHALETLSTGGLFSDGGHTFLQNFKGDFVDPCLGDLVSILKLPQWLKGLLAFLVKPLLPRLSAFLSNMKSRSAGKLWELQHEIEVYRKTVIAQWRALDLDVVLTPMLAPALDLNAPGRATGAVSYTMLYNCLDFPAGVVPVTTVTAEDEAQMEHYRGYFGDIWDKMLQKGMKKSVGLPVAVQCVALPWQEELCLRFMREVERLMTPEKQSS

human FAAH 1 = human FAAH 1 (Homo sapiens (Human), UniProt O00519); test: Human FAAH 1 assay (AAMCA fluorescence); format: biochemical; conditions: 1 hour pre-incubation with compound, 10 nM FAAH; read-out: FAAH Human IC50 (nM) 60 minutes (n = 2)
Sequence of human FAAH 1 (O00519 whole entry): as above
Method: Part B Human FAAH 1 Assay
Human FAAH 1 activity was determined by measuring the liberation of the highly fluorescent 7-amino, 4-methyl Coumarin (AMC) generated during hydrolysis of the substrate arachidonoyl 7-amino, 4-methyl coumarin amide (AAMCA) by FAAH. Inhibition of human FAAH 1 activity was determined as a percentage reduction of the fluorescence determined in the absence of compound.
The assay was carried out in black-walled, clear bottom, 384-well plates. 27.5 μl of human FAAH 1 protein (in FAAH assay buffer: 50 mM Hepes, 0.01% Triton X-100, 1 mM EDTA, 0.5 mg/ml BSA (fatty-acid-free), pH 8.2) was pre-incubated, at 10 nM, with increasing concentrations of compounds (2.5 μl in 100% DMSO) for 1 hour at room temperature. 2.5 μl of DMSO was added for ‘total’ controls (100% FAAH activity) and 2.5 μl of URB-597, a known inhibitor of FAAH activity, (at a final, saturating, concentration of […]) was used for ‘non-specific’ controls (0 FAAH activity). 20 μl of 7.5 μM AAMCA substrate (in FAAH assay buffer) was then added to all wells and incubated at room temperature for a further 4 hours. Fluorescence was determined at an excitation wavelength of 355 nm and an emission wavelength of 460 nm using a Flexstation plate reader (Molecular Devices, UK). Inhibition of human FAAH 1 activity, by the compounds, was determined as the percentage reduction in relative fluorescence units (RFU) compared to the ‘total’ controls (in the absence of compound) minus the ‘non-specific’ controls. IC50 values were determined, from 10-point dose response curves, in XL-Fit using a 4-Parameter Logistic Model (Sigmoidal Dose-Response Model).

[3] = system: carrageenan-induced thermal hypersensitivity; test: Rat carrageenan induced thermal hyperalgesia model of inflammatory pain; format: in vivo
Method: Part C Rat Carrageenan Induced Thermal Hyperalgesia Model of Inflammatory Pain.
Male Wistar rats were assessed for thermal pain sensitivity by applying a focused light beam onto the hind paws and recording the time to paw withdrawal, before and after local intraplantar administration of carrageenan. After 3 h, thermal pain sensitivity was reassessed in treated and untreated hind paws prior to dosing with test compound or vehicle. Indomethacin was administered as a positive control.
Male Sprague Dawley rats were tail-marked, and acclimatised to the plantar boxes on 3 separate occasions (6, 5 and 1 day prior to the test day) for at least 5 min on each occasion. On the pre-test day, the rats were habituated to the test room for at least 30 min prior to testing. The rats were put into the Hargreaves plantar boxes, allowed to settle down for approx 3-5 min, and challenged with the mobile radiant heat source. The latency to withdraw both left and right hindpaws from the heat source was determined on 2 occasions (3 min apart). The mean across the 2 challenges was recorded as the baseline for each animal. Rats 18 and 30 were not used in the study as they had very high baseline readings, and they were replaced by 61 and 63. Rats were then allocated to drug treatments ensuring the baseline latencies were balanced across groups.
On the test day, rats received intraplantar carrageenan lambda (100 uL of 1% in saline), or saline in right hindpaw 3 hours before testing. Four hours before testing, rats received VER-158416 (1, 3, or 10 mg/kg) or vehicle (5% EtOH: 95% (1% methylcellulose in water) p.o. Subsequently, 30 min before testing, rats received a second injection of either indomethacin 10 mg/kg or vehicle (50% 0.1M Na2CO3: 47.5% phosphate buffered saline (PBS): 2.5% 1M HCl) i.p. At the scheduled test time following drug treatment, the latency to withdraw the paw from the radiant heat source was reassessed by a single reading.
For example, the compound of Example 13 above was tested as follows:
Rats were dosed with intraplantar carrageenan at t=0; the compound of Example 13 (1, 3 & 10 mg/kg po) or vehicle (5% EtOH: 95% (1% methylcellulose in water) at t=2 h; indomethacin (10 mg/kg ip) or vehicle at t=2.5 h and thermal sensitivity was measured at t=3 h. Thus all rats received both oral and ip dosing.

Sequence of rat FAAH protein (30-579) (P97612 30-579): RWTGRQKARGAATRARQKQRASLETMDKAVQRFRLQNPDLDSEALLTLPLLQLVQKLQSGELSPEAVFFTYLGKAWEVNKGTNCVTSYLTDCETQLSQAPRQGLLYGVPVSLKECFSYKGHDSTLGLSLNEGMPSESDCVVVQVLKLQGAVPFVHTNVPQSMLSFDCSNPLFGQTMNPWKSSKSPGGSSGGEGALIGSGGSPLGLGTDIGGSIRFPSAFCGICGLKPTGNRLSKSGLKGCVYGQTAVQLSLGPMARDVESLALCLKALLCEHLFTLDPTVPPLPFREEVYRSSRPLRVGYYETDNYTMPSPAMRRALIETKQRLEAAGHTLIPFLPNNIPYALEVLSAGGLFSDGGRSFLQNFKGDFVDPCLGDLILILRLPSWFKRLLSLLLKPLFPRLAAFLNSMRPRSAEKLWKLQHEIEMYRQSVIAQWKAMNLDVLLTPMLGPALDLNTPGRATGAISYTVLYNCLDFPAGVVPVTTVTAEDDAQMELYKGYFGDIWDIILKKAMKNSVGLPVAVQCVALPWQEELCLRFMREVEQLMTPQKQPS

- IC50 [1]: 135 nM
SMILES: O=C(Nc1ccccc1)N1CC(Oc2ccc(-c3ccccc3)cc2)C1 [Example 1, 3-(biphenyl-4-yloxy)-azetidine-1-carboxylic acid phenylamide]

- IC50 [1]: 279 nM
SMILES: O=C(Nc1cccc(F)c1)N1CC(Oc2ccc(-c3ccccc3)cc2)C1 [Example 2, 3-(Biphenyl-4-yloxy)-azetidine-1-carboxylic acid (3-fluoro-phenyl)-amide]

- IC50 [1]: 77 nM
SMILES: O=C(Nc1ccccc1F)N1CC(Oc2ccc(-c3ccccc3)cc2)C1 [Example 3, 3-(Biphenyl-4-yloxy)-azetidine-1-carboxylic acid (2-fluoro-phenyl)-amide]

- IC50 [1]: 67 nM
- plasma concentrations after oral administration [2]: high and prolonged
- intrinsic-FAAH inhibitory potency (FAAH): good
SMILES: O=C(Nc1cccnc1)N1CC(Oc2ccc(-c3ccccc3)cc2)C1 [Example 4, 3-(Biphenyl-4-yloxy)-azetidine-1-carboxylic acid pyridin-3-ylamide]

SMILES: COCCOc1cccc(-c2ccc(OC3CN(C(=O)Nc4ccncn4)C3)nc2)c1 [Example 5, 3-{5-[3-(2-Methoxy-ethoxy)-phenyl]-pyridin-2-yloxy}-azetidine-1-carboxylic acid pyrimidin-4-ylamide]
- IC50 (human FAAH 1): 9 nM

SMILES: COCCOc1cccc(-c2ccc(OC3CN(C(=O)Nc4cnccn4)C3)nc2)c1 [Example 6, 3-{5-[3-(2-Methoxy-ethoxy)-phenyl]-pyridin-2-yloxy}-azetidine-1-carboxylic acid pyrazin-2-ylamide]
- IC50 (human FAAH 1): 73 nM

SMILES: COCCOc1cccc(-c2ccc(OC3CN(C(=O)Nc4cccnn4)C3)nc2)c1 [Example 7, 3-{5-[3-(2-Methoxy-ethoxy)-phenyl]-pyridin-2-yloxy}-azetidine-1-carboxylic acid pyridazin-3-ylamide]
- IC50 (human FAAH 1): 19 nM
- plasma concentrations after oral administration [2]: high and prolonged
- intrinsic-FAAH inhibitory potency (FAAH): good

- IC50 (human FAAH 1): 18 nM
SMILES: COCCOc1cccc(-c2ccc(OC3CN(C(=O)Nc4cccnc4)C3)nc2)c1 [Example 8, 3-{5-[3-(2-Methoxy-ethoxy)-phenyl]-pyridin-2-yloxy}-azetidine-1-carboxylic acid pyridin-3-ylamide]

SMILES: O=C(Nc1cccnn1)N1CC(Oc2ccc(-c3cccc(OCCOCc4ccccc4)c3)cn2)C1 [Example 9, 3-{5-[3-(2-Benzyloxy-ethoxy)-phenyl]-pyridin-2-yloxy}-azetidine-1-carboxylic acid pyridazin-3-ylamide]
- IC50 (human FAAH 1): 3 nM

- IC50 (human FAAH 1): 49 nM
SMILES: O=C(Nc1cccnn1)N1CC(Oc2ccc(-c3cccc(OCCO)c3)cn2)C1 [Example 10, 3-{5-[3-(2-Hydroxy-ethoxy)-phenyl]-pyridin-2-yloxy}-azetidine-1-carboxylic acid pyridazin-3-ylamide]

- IC50 (human FAAH 1): 19 nM
SMILES: COCCOc1ccc(OC)c(-c2ccc(OC3CN(C(=O)Nc4cccnn4)C3)nc2)c1 [Example 11, 3-{5-[2-Methoxy-5-(2-methoxy-ethoxy)-phenyl]-pyridin-2-yloxy}-azetidine-1-carboxylic acid pyridazin-3-ylamide]

- IC50 (human FAAH 1): 12 nM
SMILES: COc1ccc(OC)c(-c2ccc(OC3CN(C(=O)Nc4cccnn4)C3)nc2)c1 [Example 12, 3-[5-(2,5-Dimethoxy-phenyl)-pyridin-2-yloxy]-azetidine-1-carboxylic acid pyridazin-3-ylamide]

- IC50 (human FAAH 1): 38 nM
- plasma concentrations after oral administration [2]: high and prolonged
- intrinsic-FAAH inhibitory potency (FAAH): good
SMILES: O=C(Nc1cccnn1)N1CC(Oc2ccc(-c3ccccc3)cn2)C1 [Example 13, 3-(5-Phenyl-pyridin-2-yloxy)-azetidine-1-carboxylic acid pyridazin-3-ylamide]
- effect on contralateral paw sensitivities to thermal pain ([3]; 1, 3, 10 mg/kg p.o., rat): no effect
- inhibition of carrageenan-induced thermal hypersensitivity ([3]; 1, 3, 10 mg/kg p.o., rat): dose-related inhibition
- reduction of pain sensitivity to below normal levels ([3]; 1, 3, 10 mg/kg p.o., rat): did not reduce pain sensitivity to below normal levels
- statistical significance of inhibition vs vehicle/carrageenan group ([3]; at 3 and 10 mg/kg doses p.o., one way ANOVA, Newman-Keuls): reached statistical significance

SMILES: O=C(Nc1cccnn1)N1CC(Oc2ccc(-c3c(F)cccc3F)cn2)C1 [Example 14, 3-[5-(2,6-Difluoro-phenyl)-pyridin-2-yloxy]-azetidine-1-carboxylic acid pyridazin-3-ylamide]
- IC50 (human FAAH 1): 14 nM

- IC50 (human FAAH 1): 7 nM
SMILES: COCCOc1ccc(Cl)c(-c2ccc(OC3CN(C(=O)Nc4cccnn4)C3)nc2)c1 [Example 15, 3-{5-[2-Chloro-5-(2-methoxy-ethoxy)-phenyl]-pyridin-2-yloxy}-azetidine-1-carboxylic acid pyridazin-3-yl-amide]

- IC50 (human FAAH 1): 42 nM
SMILES: O=C(Nc1cnccn1)N1CC(Oc2ccc(-c3ccccc3F)cn2)C1 [Example 16, 3-[5-(2-Fluoro-phenyl]-pyridin-2-yloxy]-azetidine-1-carboxylic acid pyrazin-2-ylamide]

- plasma concentrations after oral administration [2]: high and prolonged
SMILES: COc1ccccc1-c1ccc(OC2CN(C(=O)Nc3cccnn3)C2)nc1 [Example 17, 3-[5-(2-Methoxy-phenyl)-pyridin-2-yloxy]-azetidine-1-carboxylic acid pyridazin-3-ylamine]

SMILES: O=C(Nc1cccnn1)N1CC(Oc2ccc(-c3ccccc3F)cn2)C1 [Example 18, 3-[5-(2-Fluoro-phenyl)-pyridin-2-yloxy]-azetidine-1-carboxylic acid pyridazin-3-ylamide]
- IC50 (human FAAH 1): 16 nM
- plasma concentrations after oral administration [2]: high and prolonged
- intrinsic-FAAH inhibitory potency (FAAH): good

- IC50 (human FAAH 1): 26 nM
SMILES: COc1cccc(-c2ccc(OC3CN(C(=O)Nc4cccnn4)C3)nc2)c1F [Example 19, 3-[5-(2-Fluoro-3-methoxy-phenyl)-pyridin-2-yloxy]-azetidine-1-carboxylic acid pyridazin-3-ylamide]
